# Where two headings read alike, the source gives them in different places.
# Columns and labels:
# [1] = tested on: Streptococcus agalactiae clinical isolates; test: MIC distribution against clinical isolates; assay type: cell-based; details: 20 S. agalactiae isolates
# Procedure, shortened: (§1)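 MIC is the lowest agent concentration preventing growth, determined by broth or agar dilution with serial compound dilutions and incubation under appropriate conditions (e.g., overnight at 37° C.). MIC90 is the concentration inhibiting ≥90% of isolates in the test population.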
# E. coli ATCC 25922 = test: Broth microdilution MIC (time-kill study); assay type: cell-based, Escherichia coli; details: E. coli ATCC 25922
# E. coli MMX 1312 = test: Broth microdilution MIC (time-kill study); assay type: cell-based, Escherichia coli; details: E. coli MMX 1312
# S. pneumoniae ATCC 49619 = test: Broth microdilution MIC (time-kill study); assay type: cell-based, Streptococcus pneumoniae; details: S. pneumoniae ATCC 49619
# B. ovatus MMX 3503 = test: Broth microdilution MIC (time-kill study); assay type: cell-based, Bacteroides ovatus; details: B. ovatus MMX 3504 (so in the source)
# [2] = tested on: Bacteroides fragilis clinical isolates; test: MIC distribution against clinical isolates; assay type: cell-based; details: 30 B. fragilis isolates
# Procedure, shortened: as §1
# [3] = tested on: Veillonella spp. clinical isolates; test: MIC distribution against clinical isolates; assay type: cell-based; details: 30 Veillonella spp. isolates
# From the text: (n=19 V. parvula, n=9 Veillonella spp., n=1 Veillonella dispr., n=1 V. atypica) clinical isolates (μg/mL).
# As used herein, “minimum inhibitory concentration” or “MIC” refers to the lowest concentration of an antimicrobial agent, for example, an antimicrobial agent as described herein, required to inhibit the growth of an organism. […] “MIC90” represents the MIC value at which ≥90% of the strains within a test population are inhibited; the 90th percentile.
# Many susceptibility testing methods are known in the art and can be used as described herein (see, e.g., Jorgensen and Ferraro (2009) Clinical Infectious Diseases 49:1749-1755; and Maurer et al. (2017) Infectious Disease Reports 9:6839; the entire contents of each of the foregoing are incorporated herein by reference). For example, antimicrobial susceptibility can be determined using conventional culture based methods such as the broth or agar dilution test. In these dilution tests, the bacterial isolate of interest is inoculated onto different media that include serial dilutions of an antimicrobial agent, and incubated under appropriate conditions (e.g., overnight at 37° C.) to allow for growth to occur. Following the incubation period, the media is examined to determine bacterial growth. The lowest concentration of antibiotic that prevents growth represents the minimal inhibitory concentration (MIC). Broth dilution tests can be miniaturized and mechanized allowing for reproducibility and high throughput.
# Bacteroides fragilis = test: Agar dilution MIC, 30 clinical isolates; assay type: cell-based; details: 30 Bacteroides fragilis clinical isolates
# Bacteroides non fragilis = test: Agar dilution MIC, 29 clinical isolates; assay type: cell-based, Bacteroides spp.; details: 29 Bacteroides non-fragilis clinical isolates
compound,measurement,setting,value
"CN[C@H](CC(C)C)C(=O)N[C@H]1C(=O)N[C@@H](CC(N)=O)C(=O)N[C@H]2C(=O)N[C@H]3C(=O)N[C@H](C(=O)N[C@H](C(=O)O)c4cc(O)cc(O)c4-c4cc3ccc4O)[C@H](O)c3ccc(c(Cl)c3)Oc3cc2cc(c3O[C@@H]2O[C@H](CO)[C@@H](O)[C@H](O)[C@H]2O[C@H]2C[C@](C)(N)[C@H](O)[C@H](C)O2)Oc2ccc(cc2Cl)[C@H]1O [vancomycin, Vancomycin]",Cumulative percentage of isolates inhibited at MIC,[1]; MIC 1 μg/mL,100.0%
same,Number of test isolates at MIC,[1]; MIC 1 μg/mL,1
same,MIC,"E. coli ATCC 25922; Escherichia coli, ATCC25922, read-out: MIC",> 16 µg/mL
same,MIC,"E. coli MMX 1312; Escherichia coli, MMX1312, read-out: MIC",> 16 µg/mL
same,MIC,"S. pneumoniae ATCC 49619; Streptococcus pneumoniae, ATCC49619, read-out: MIC",0.25 µg/mL
same,MIC,"B. ovatus MMX 3503; Bacteroides ovatus, MMX3503, read-out: MIC",> 16 µg/mL
Cc1ncc([N+](=O)[O-])n1CCO [MTZ],Cumulative percentage of isolates inhibited at MIC,[2]; MIC 0.5 μg/mL,30.0%
same,Number of test isolates at MIC,[2]; MIC 0.5 μg/mL,7
same,Cumulative percentage of isolates inhibited at MIC,[2]; MIC 1 μg/mL,76.7%
same,Number of test isolates at MIC,[2]; MIC 1 μg/mL,14
same,Cumulative percentage of isolates inhibited at MIC,[2]; MIC 2 μg/mL,100.0%
same,Number of test isolates at MIC,[2]; MIC 2 μg/mL,7
same,Cumulative percentage of isolates inhibited at MIC,[2]; MIC […],6.7%
same,Number of test isolates at MIC,[2]; MIC […],2
same,Cumulative percentage of isolates inhibited at MIC,[3]; MIC 1 μg/mL,3.3%
same,Number of test isolates at MIC,[3]; MIC 1 μg/mL,1
same,Cumulative percentage of isolates inhibited at MIC,[3]; MIC 2 μg/mL,33.3%
same,Number of test isolates at MIC,[3]; MIC 2 μg/mL,9
same,Cumulative percentage of isolates inhibited at MIC,[3]; MIC 4 μg/mL,83.3%
same,Number of test isolates at MIC,[3]; MIC 4 μg/mL,15
same,Cumulative percentage of isolates inhibited at MIC,[3]; MIC >32 μg/mL,100.0%
same,Number of test isolates at MIC,[3]; MIC >32 μg/mL,5
same,% S,Bacteroides fragilis,100%
same,MIC50,Bacteroides fragilis,1 µg/mL
same,MIC90,Bacteroides fragilis,2 µg/mL
same,MIC range,Bacteroides fragilis,0.25 to 2 µg/mL
same,Mode,Bacteroides fragilis; modal MIC,1 µg/mL
same,% I,Bacteroides non fragilis,3%
same,% S,Bacteroides non fragilis,97%
same,MIC50,Bacteroides non fragilis,0.5 µg/mL
same,MIC90,Bacteroides non fragilis,2 µg/mL
same,Mode,Bacteroides non fragilis; modal MIC,0.5 µg/mL
piperacillin/tazobactam [piperacillin-tazobactam],MIC,E. coli ATCC 25922,4/4
same,MIC,E. coli MMX 1312,16/4
same,MIC,S. pneumoniae ATCC 49619,1 µg/mL
same,MIC,B. ovatus MMX 3503,>16 µg/mL
COc1c(N2C[C@@H]3CCCN[C@@H]3C2)c(F)cc2c(=O)c(C(=O)O)cn(C3CC3)c12 [moxifloxacin],Cumulative percentage of isolates inhibited at MIC,[1]; MIC 0.06 μg/mL,15.0%
same,Number of test isolates at MIC,[1]; MIC 0.06 μg/mL,3

# Reference: patent publication US20210386367A1, “DEVICES AND SYSTEMS FOR GASTROINTESTINAL MICROBIOME DETECTION AND MANIPULATION” (Progenity, Inc., priority 2018, published 2021)
